Reference: patent publication US20110195979A1, “COMPOUNDS FOR THE TREATMENT AND PREVENTION OF INFLUENZA” (priority 2010, published 2011)
Like-named read-outs stand apart in the source and are kept apart here.

Key:
MDCK cells [1] = test: Cytotoxicity to MDCK cells (compound toxicity control, MTT); details: for IC50 at 3 day: dog; for IC50: read-out: Cytotoxicy IC50, half maximal cytotoxicity concentration to MDCK cells, MTT
Influenza H1N1 virus = test: Viral cytopathic effect (CPE) assay; assay type: cell-based, Influenza A (H1N1)
Description: Cells and viruses. Madin-Darby canine kidney cell (MDCK) was purchased from American type culture collection (ATCC) and was maintained in minimal essential medium (MEM) containing 10% fetal bovine serum and antibiotics. Influenza A/Weiss/43 (H1N1), A/PR/8/34 (H1N1), and A/Hongkong/8/68 (H3N2) were purchased from ATCC and propagated in 10-day-old embryonated chicken eggs at 37° C. Virus was harvested 48 h after inoculation as pooled allantoic fluid. After a brief centrifugation (3,000 rpm at room temperature for 20 min) and virus titer measurement by a hemagglutination test, virus was aliquoted and stored at a −80° C. freezer.
Viral cytopathic effect (CPE) assay: To measure anti-influenza activity of compounds, MDCK cells were seeded into 96-well plates at a density of 5,000 cells per well. Next day, compounds were serially half-log diluted with Gibco SFM containing trypsin. Compounds and 50 pfu of virus were added into corresponding wells to make m.o.i at 0.01 and a final trypsin concentration of 2.5 μg/ml. The testing plates also contained medium control, cell control, virus control, and compound toxicity control. After a 3-day treatment, cell viability was measured with a MTT (3-(4,5-dimethylthiazol-2-yl)-2,5-diphenyltetrazolium bromide) method. Briefly, 20 μl of MTT diluted in culture medium was added into each wells and incubated at 37° C. for 4 hours. Reduced MTT (formazan) was extracted with acidic isopropanol and absorbance at wavelengths of 570 nm and 630 nm (OD570 and OD630) was read on a microtiter plate reader. After subtraction of background OD values, dose response curves of half-log concentration vs. percent protection were generated, on which half maximal effective concentration (EC50) and half maximal toxic concentration (CC50) were calculated.

MDCK cells [2] = details: dog, 3 day
MDCK cells [3] = test: in vitro; details: dog, Cytotoxicy IC50
H3 viruses = details: cited from earlier work
H1 and H2 viruses = details: cited from earlier work
H3 influenza viruses = details: cited from earlier work
[4] = Influenza A virus, H1N1, MDCK, 72 h, read-out: CPE_EC50
[5] = H1N1; MDCK cells, m.o.i 0.01, 3-day treatment, MTT OD; mean of triplicate experiments; read-out: CPE_EC50

Question: What does the source list for `CC1(C)CC(O)CC(C)(CNc2ccc(C#N)c(Cl)c2)C1` (stereo not drawn) [Example IIa-29, 2-Chloro-4-[((cis-1,5)-5-hydroxy-1,3,3-trimethyl-cyclohexylmethyl)-amino]-benzonitrile]?
Answer: IC50 at 3 day (MDCK cells [1]): 8.22 µM; EC50 (Influenza H1N1 virus; [4]): 0.18 µM

Question: Which results are given for `CC1(C)CC(O)CC(CNc2cc(F)cc(C(F)(F)F)c2)C1` (single isomer, unassigned) [Example IIi-1/2 Isomer 2, (trans-1,5)-5-[(3-fluoro-5-trifluoromethyl-phenylamino)-methyl]-3,3-dimethyl-cyclohexanol]?
Answer: EC50 (Influenza H1N1 virus; read-out: CPE_EC50; H1N1; MDCK cells, m.o.i 0.01, 3-day treatment, MTT OD; mean of triplicate experiments): < 0.31 µM; IC50 (MDCK cells [2]): 16.8 µM

Question: For `CC1(C)C[C@@H](O)C[C@@](C)(CNc2cc(Cl)cc(C#N)c2)C1` (relative stereo) [Example IIa-23, 3-Chloro-5-[((cis-1,5)-5-hydroxy-1,3,3-trimethyl-cyclohexylmethyl)-amino]-benzonitrile], which IC50 (MDCK cells [1]) is on record?
Answer: Its IC50 is 13.9 µM.

Question: What about the EC50 (Influenza H1N1 virus; [5]) of the same molecule?
Answer: Its EC50 is 0.034 µM.

Question: For `CC1(C)CC(O)CC(C)(CNc2ccc(C#N)c(C(F)(F)F)c2)C1` (stereo not drawn) [Example IIa-33, 4-[((cis-1,5)-5-Hydroxy-1,3,3-trimethyl-cyclohexylmethyl)-amino]-2-trifluoromethyl-benzonitrile], which IC50 at 3 day (MDCK cells [1]) is on record?
Answer: Its IC50 at 3 day is 8.35 µM.

Question: And the EC50 (Influenza H1N1 virus; [4])?
Answer: The EC50 was 0.049 µM.

Question: Which EC50 (Influenza H1N1 virus; [4]) does the source give for `CC1(C)CC(O)CC(C)(C(=O)Nc2cccc(OC(F)(F)F)c2)C1` (stereo not drawn) [Example IVa-8, (cis-1,5)-5-Hydroxy-1,3,3-trimethyl-cyclohexanecarboxylic acid(3-trifluoromethoxy-phenyl)-amide] here?
Answer: The EC50 was 0.861 µM.

Question: And the IC50 at 3 day (MDCK cells [3])?
Answer: The IC50 at 3 day was 60 µM.

Question: What does the source list for `C[C@@H]1CCC[C@@H]2C[C@@H](NC(=O)c3cc(Cl)c(N)cc3O)CCN21` [BMY 27709]?
Answer: activity against H3 viruses (H3 viruses): not H3 viruses; EC50 (H1 and H2 viruses; read-out: anti-flu activity EC50): 6 to 8 µM

Question: What does the source list for “(cis-1,5)-5-Hydroxy-1,3,3-trimethyl-cyclohexanecarboxylic acid(4-chloro-3-trifluoromethyl-phenyl)-amide [Example IVa-22]”?
Answer: IC50 (MDCK cells [1]): 7.49 µM; EC50 (Influenza H1N1 virus; [5]): 0.165 µM

Question: Which “activity against H3 viruses” value (H3 viruses) does the source give for `C[C@H]1CC[C@H]2C(C)(C)[C@@H](O)CC[C@]23Oc2c(c(O)cc4c2CNC4=O)C[C@]13C` [stachyflin] here?
Answer: Its value is “not H3 viruses”.

Question: What about the “block of influenza virus replication” value (H1 and H2 viruses) of the same molecule?
Answer: Its value is “blocked”.

Question: Which EC50 (Influenza H1N1 virus; [4]) does the source give for `CC1(C)CC(O)CC(C)(C(=O)Nc2cc(Cl)cc(C(F)(F)F)c2)C1` (stereo not drawn) [Example IVa-14, (cis-1,5)-5-Hydroxy-1,3,3-trimethyl-cyclohexanecarboxylic acid(3-chloro-5-trifluoromethyl-phenyl)-amide] here?
Answer: The EC50 was 0.019 µM.

Question: And the IC50 at 3 day (MDCK cells [3])?
Answer: Its IC50 at 3 day is 22.2 µM.

Question: Which results are given for `CC1(C)CC(F)(F)CC(C)(CNc2nc3ccccc3o2)C1` (centres unmarked) [Example IIIc-2, Benzoxazol-2-yl-(3,3-difluoro-1,5,5-trimethyl-cyclohexylmethyl)-amine]?
Answer: EC50 (Influenza H1N1 virus; [4]): 3.36 µM; IC50 at 3 day (MDCK cells [3]): 10.9 µM

Question: Which results are given for `COc1cccc(NCC2(C)CC(O)CC(C)(C)C2)c1` (stereo not drawn) [Example IIa-8, (cis-1,3)-3-[(3-Methoxy-phenylamino)-methyl]-3,5,5-trimethyl-cyclohexanol]?
Answer: EC50 (Influenza H1N1 virus; [4]): 0.2 µM; IC50 at 3 day (MDCK cells [3]): > 50 µM

Question: Which EC50 (Influenza H1N1 virus; [4]) does the source give for `CC1(C)CC(O)CC(C)(CNc2nccc3ccccc23)C1` (stereo not drawn) [Example IIIf-1, (cis-1,3)-3-(Isoquinolin-1-ylaminomethyl)-3,5,5-trimethyl-cyclohexanol] here?
Answer: The EC50 was 2.37 µM.

Question: And the IC50 at 3 day (MDCK cells [3])?
Answer: Its IC50 at 3 day is 43.7 µM.

Question: Which results are given for `CC1(C)CC(C)(O)CC(C)(CNc2cc(F)cc(C(F)(F)F)c2)C1` (stereo not drawn) [Example IIg-1, (cis-1,3)-3-[(3-Fluoro-5-trifluoromethyl-phenylamino)-methyl]-1,3,5,5-tetramethyl-cyclohexanol]?
Answer: EC50 (Influenza H1N1 virus; [4]): 0.089 µM; IC50 at 3 day (MDCK cells [3]): > 3.16 µM

Question: For `CC1(C)CC(O)CC(C)(CNc2nc3ccccc3o2)C1` (stereo not drawn) [Example IIIc-1, (cis-1,3)-3-(Benzoxazol-2-ylaminomethyl)-3,5,5-trimethyl-cyclohexanol], which EC50 (Influenza H1N1 virus; [4]) is on record?
Answer: Its EC50 is 1.42 µM.

Question: What about the IC50 at 3 day (MDCK cells [3]) of the same molecule?
Answer: The IC50 at 3 day was 83 µM.

Question: Which results are given for `CC1(C)CC(O)CC(C)(C(=O)Nc2cccc(Cl)c2)C1` (stereo not drawn) [Example IVa-3, (cis-1,5)-5-Hydroxy-1,3,3-trimethyl-cyclohexanecarboxylic acid(3-chloro-phenyl)-amide]?
Answer: EC50 (Influenza H1N1 virus; [4]): 0.46 µM; IC50 at 3 day (MDCK cells [3]): 82.1 µM

Question: Which results are given for `CC1(C)CC(O)CC(CNc2cc(F)cc(C(F)(F)F)c2)C1` (single isomer, unassigned) [Example IIi-1/2 Isomer 1, (cis-1,5)-5-[(3-Fluoro-5-trifluoromethyl-phenylamino)-methyl]-3,3-dimethyl-cyclohexanol]?
Answer: EC50 (Influenza H1N1 virus; [4]): < 0.31 µM; IC50 (MDCK cells [2]): 8.16 µM

Question: Which EC50 (Influenza H1N1 virus; [4]) does the source give for `COC1CC(C)(C)CC(C)(CNc2cc(F)cc(C(F)(F)F)c2)C1` (stereo not drawn) [Example IIf-1, (3-Fluoro-5-trifluoromethyl-phenyl)-((cis-1,5)-5-methoxy-1,3,3-trimethyl-cyclohexylmethyl)-amine] here?
Answer: The EC50 was 0.129 µM.

Question: What about the IC50 at 3 day (MDCK cells [3]) of the same molecule?
Answer: Its IC50 at 3 day is greater than 3.16 µM.

Question: With `CC1(C)CC(O)CC(C)(CNc2cc(F)cc(C#N)c2)C1` (stereo not drawn) [Example IIa-22, 3-Fluoro-5-[((cis-1,5)-5-hydroxy-1,3,3-trimethyl-cyclohexylmethyl)-amino]-benzonitrile] as the molecule, how does the EC50 (Influenza H1N1 virus; [4]) read?
Answer: Its EC50 is 0.05 µM.

Question: And the IC50 at 3 day (MDCK cells [3])?
Answer: Its IC50 at 3 day is 23.9 µM.

Question: Which inhibition of fusion (H3 influenza viruses) does the source give for `CC(C)(C)c1cc(O)ccc1O` [TBHQ, tert-butyl hydroquinone] here?
Answer: The inhibition of fusion was “inhibits fusion”.

Question: Which results are given for `CC1(C)CC(O)CC(C)(CNc2ccc(Cl)c(C#N)c2)C1` (stereo not drawn) [Example IIa-30, 2-Chloro-5-[((cis-1,5)-5-hydroxy-1,3,3-trimethyl-cyclohexylmethyl)-amino]-benzonitrile]?
Answer: IC50 at 3 day (MDCK cells [1]): 7.99 µM; EC50 (Influenza H1N1 virus; [4]): 0.14 µM

Question: With `CC1(C)CC(O)CC(C)(C(=O)Nc2ccc(Cl)c(F)c2)C1` (stereo not drawn) [Example IVa-19, (cis-1,5)-5-Hydroxy-1,3,3-trimethyl-cyclohexanecarboxylic acid(4-chloro-3-fluoro-phenyl)amide] as the molecule, how does the EC50 (Influenza H1N1 virus; [4]) read?
Answer: Its EC50 is 1.8 µM.

Question: And the IC50 at 3 day (MDCK cells [3])?
Answer: Its IC50 at 3 day is 30.9 µM.

Question: What does the source list for `CC1(C)CC(O)CC(C)(CNc2cc(Br)cc(C(F)(F)F)c2)C1` (stereo not drawn) [Example IIa-21, (cis-1,3)-3-[(3-Bromo-5-trifluoromethyl-phenylamino)-methyl]-3,5,5-trimethyl-cyclohexanol]?
Answer: EC50 (Influenza H1N1 virus; [4]): 0.058 µM; IC50 at 3 day (MDCK cells [3]): > 3.16 µM

Question: With `CC1(C)CC(O)CC(C)(CNc2cc(C#N)cc(C(F)(F)F)c2)C1` (stereo not drawn) [Example IIa-24, 3-[((cis-1,5)-5-Hydroxy-1,3,3-trimethyl-cyclohexylmethyl)-amino]-5-trifluoromethyl-benzonitrile] as the molecule, how does the EC50 (Influenza H1N1 virus; [4]) read?
Answer: Its EC50 is 0.04 µM.

Question: What about the IC50 at 3 day (MDCK cells [3]) of the same molecule?
Answer: The IC50 at 3 day was 13.2 µM.

Question: For `CC1(C)CC(O)CC(C)(CNc2cc(F)cc(C(F)(F)F)c2)C1` (stereo not drawn) [Example IIa-17, (cis-1,3)-3-[(3-Fluoro-5-trifluoromethyl-phenylamino)-methyl]-3,5,5-trimethyl-cyclohexanol], which EC50 (Influenza H1N1 virus; [4]) is on record?
Answer: The EC50 was 0.018 µM.

Question: What about the IC50 at 3 day (MDCK cells [3]) of the same molecule?
Answer: The IC50 at 3 day was 3.66 µM.
